In patent publication EP0407651A2, “Use of 1,3-diisobutyl-8-methylxanthine as a bronchodilator and antiallergy agent” (J. URIACH & CIA. S.A., priority 1989, dated 1991):

What was measured:
[1] = tested on: Histamine aerosol-induced bronchospasm; assay: Histamine aerosol-induced bronchospasm in conscious guinea pigs (protection from death); type: in vivo; conditions: for Histamine bronchospasm Hist. aerosol PC₅₀ (inhal) / Histamine bronchospasm Hist. aerosol PD₅₀ (oral): conscious guinea pigs; for Histamine bronchospasm Hist. aerosol PC₅₀ (inhal): ethanolic solution nebulized 1 mL/min for 2 min, histamine challenge 3 min later, concentration protecting 50% from lethality; for Histamine bronchospasm Hist. aerosol PD₅₀ (oral): one hour before histamine aerosol (0.2%), dose protecting 50% of animals from death; for Protection from death % / Protection from death n/N: formulation B by inhalation; for Protection from death n/N: survivors versus total number of animals
Method: This test is based on the methods of Van P+roosdif-Hartzema (Inter. Ppharmacodynamic 1958, 115, 322) and Loew (J. Pharmac.Exp.Ther. 1945, 83, 120) with slight modifications. Thus, conscious guinea pigs were subjected to inhalation of histamine (0.2% aqueous solution) nebulized by an ultrasonic device (DeVilvis™, Ultra-Neb 99) during 30 seconds in a cylindric plastic chamber of 15 liters of volume, at a rate of 1 mL/min. Test compounds were given orally, one hour before the challenge of histamine, and the dose needed to protect from death 50% of the animals was determined (PD₅₀) (Table 1).
Using the same model, test compounds were also given by inhalation. They were dissolved in ethanol at different concentrations (0.45 mM to 28mM) and aerosolized by the ultrasonic nebulizer mentioned above at a rate of 1 mL/min, during 2 minutes. Three minutes later, the animals were subjected to the challenge of histamine and PC₅₀ values were determined (Table 1). Controls were subjected to inhalation of the vehicle (ethanol). PC₅₀ value is defined as the concentration of test compound in the ethanolic solution that protects 50% of animals from lethality when nebulized as indicated above.
Finally, studies have been made subjecting the animals to inhalation of one or more puffs of 5 mg/mL of 1,3-diisobutyl-8-methylxanthine (UR-6032) solution formulation B (see Example 1). Animals were forced to inhale UR-6032 for 5 minutes into the cylindric plastic chamber before the challenge with ultrasonic nebulized histamine (see above) and protection from death with respect to controls was determined (Table 2).

[2] = tested on: Histamine-induced bronchospasm in anaesthetized guinea pigs; assay: Histamine-induced bronchospasm in anaesthetized guinea pigs (Konzett and Rössler); type: in vivo; conditions: histamine 10 mcg/Kg i.v., test compound i.p., maximum inhibitory effect at 10, 30, 60 min
Method: This test was performed in anaesthetized animals according to the method of Konzett and Rössler (Arch. Exp. Pathol.Pharmacol. 1940, 195, 71). The activity was determined by calculating the dose of the active compound required to produce 50% inhibition of the bronchospasm (ID₅₀) (Table 1). Histamine was given intravenously at 10 mcg/Kg, before and 10, 30 and 60 minutes after intraperitoneal administration of test compounds. Maximum inhibitory effects were taken for calculation of ID₅₀ values.

[3] = tested on: Passive cutaneous anaphylaxis reaction (PCA); assay: Passive cutaneous anaphylaxis reaction (PCA) in the rat; type: in vivo; conditions: 30 minutes before egg albumin and Evans' blue challenge
Method: The animals were passively sensitized by intradermal injection of 0.1 mL of five-fold diluted rat reagenic antiserum. Injections were made at 4 locations on the shaved back skin and 48 h later the test drug was administered intraperitoneally. Thirty minutes later, the animals were challenged by intravenous injection of egg albumin and Evans' blue dye. The dermal reaction was measured colorimetrically by the method of Harata (J.Pharm.Pharmac., 1971, 23, 218) as the extent of the blueing reaction at the sensitized intradermal injection site, and the percent inhibition values with respect to controls were calculated (Table 3).

[4] = tested on: Isolated guinea pig trachea; assay: Isolated guinea pig trachea relaxation (spontaneous tonus, organ bath); type: cell-based; conditions: Cavia porcellus; 50% relaxation of spontaneous tonus; relaxation by 1 mcM isoprenaline = 100%; read-out: Guinea pig trachea EC₅₀
Method: This in vitro test was carried out according to the method of Emmerson and Mackay (J. Pharm. Pharmacol. 1979, 31, 798). The trachea was excised from guinea pigs, placed in Krebs Henseleit's solution at 37°C and gassed with 95% O₂ and 5% CO₂. The trachea strip was mounted in an organ bath and attached to a tension transducer preloaded with […]. Test compounds were cumulatively added to the organ bath and concentrations causing 50% relaxation of the spontaneous tonus of the tracheal tissue (EC₅₀) were calculated (Table 1). The relaxation induced by 1 mcM isoprenaline was taken as 100%.

[5] = tested on: rat peritoneal mast cell preparations; assay: Histamine release induced by compound 48/80 in rat mast cell preparations; type: cell-based; conditions: 20 min, 1 mM test compound, compound 48/80 10⁻⁶ M, 37°C, read-out: Histamine release % inhib. at 1 mM
Method: Anaesthetized rats were bled by cardiac puncture and then 10 mL of Tyrode's-gel solution (0.1% gelatine in Tyrode's buffer, pH 7.2) containing 50 mcg heparin was injected into the peritoneal cavity. Alter a gentle massage of the abdomen, the peritoneal cell suspension was harvested. Mast cells were suspended in Tyrode's solution (10⁶ cells/mL). Aliquots of 0.2 mL of the mast cell suspension were incubated at 37°C for 20 minutes with 10 mcL of compound 48/80 (10⁻⁶ M final concentration), a potent histamine release inducer. The reaction was stopped by introducing the tubes in a ice-ethanol bath. The cells were sedi-mented by centrifugation and the histamine in the supernatant was determined by the fluorimetric method of May (J. Allergy, 1970, 46, 12). The sedimented pellets were treated with 0.1 N HCl at 100°C to liberate the non-released histamine and to determine it by the same method of May. Test compounds were added to the incubation medium dissolved in Tyrode's buffer at different concentrations (final volume: 1 mL). Control samples contained the same volume of Tyrode's buffer. The histamine release in the control samples was taken as 100%, and the percentage of the histamine release inhibition of test samples was calculated with respect to controls. (Table 3).

[6] = tested on: Egg albumin-induced bronchospasm in sensitized guinea pigs; assay: Egg albumin-induced bronchospasm in sensitized guinea pigs (Konzett and Rössler); type: in vivo; conditions: egg albumin 0.06% w/v, 1 mL/Kg i.v., one minute after test compound
Method: The experimental procedure of Konzett and Rössler was followed (Arch. Exp. Pathol.Pharmacol. 1940, 195, 71). A single intravenous injection of 1 mL/Kg of egg albumin (0.06%, w/v) was given to sensitized animals one minute after intravenous administration of UR-6032 at different concentrations.

[7] = Acute oral toxicity in rats; type: in vivo; conditions: both sexes rats

| SMILES | Histamine bronchospasm Hist. aerosol PC₅₀ (inhal) [1] | Histamine bronchospasm Hist. i.v. ID₅₀ [2] | PCA % inhibition at 2.5 mg/Kg,i.p. [3] [%] | EC50 [4] [nM] | inhibition at 1000 µM [5] [%] | Histamine bronchospasm Hist. aerosol PD₅₀ (oral) [1] [mg/kg] | Protection from death % ([1]; 1 puff) [%] | Protection from death n/N ([1]; 1 puff) | Protection from death % ([1]; 2 puffs) [%] | Protection from death n/N ([1]; 2 puffs) | Protection from death % ([1]; 3 puffs) [%] | Protection from death n/N ([1]; 3 puffs) | active doses given by inhalation ([1]; inhalation) [mg/animal] | Egg albumin bronchospasm ID₅₀ [6] | acute oral toxicity [7] [mg/kg] |
| --- | --- | --- | --- | --- | --- | --- | --- | --- | --- | --- | --- | --- | --- | --- | --- |
| CC(C)Cn1c(=O)n(C)c(=O)c2[nH]cnc21 [IBMX, 1-methyl-3-isobutylxanthine] | ^b 15-20 mM | 2.50 mg/Kg,i.p. | 86 | 1100 | 37 | – | – | – | – | – | – | – | – | – | – |
| Cn1c(=O)c2[nH]cnc2n(C)c1=O [Theophylline, 1,3-dimethylxanthine] | 25 mM | 4.90 mg/Kg,i.p. | 8 | 31000 | 25 | > 100 | – | – | – | – | – | – | – | – | – |
| Cc1nc2c([nH]1)c(=O)n(CC(C)C)c(=O)n2CC(C)C [UR-6032, 1,3-diisobutyl-8-methylxanthine] | 0.5 mM | 0.36 mg/Kg,i.p. | 39 | 100 | 56 | 1 | 80 | 4/5 | 100 | 3/3 | 100 | 3/3 | < 0.5 | 0.5-1 mg/Kg,i.p. | 50 |
